Reference: patent US9802943B2, “HIV inhibiting bicyclic pyrimidine derivatives” (Janssen Sciences Ireland UC, priority 2004, dated 2017)

Experiments:
[1] = tested on: Strain F (mutations K103N and Y181C in HIV reverse transcriptase); test: cellular antiviral assay, HIV mutant strain F; format: cell-based; conditions: for EC50: Human immunodeficiency virus 1, read-out: pEC50 F (converted)
Experimental: (§1) Because of the increasing emergence of drug resistant HIV strains, the present compounds were tested for their potency against clinically isolated HIV strains harboring several mutations. These mutations are associated with resistance to reverse transcriptase inhibitors and result in viruses that show various degrees of phenotypic cross-resistance to the currently commercially available drugs such as for instance AZT and delavirdine.
(§2) The antiviral activity of the compound of the present invention has been evaluated in the presence of wild type HIV and HIV mutants bearing mutations at the reverse transcriptase gene. The activity of the compounds is evaluated using a cellular assay and the residual activity is expressed in pEC50 values. The columns IIIB and A-G in the table list the pEC50 values against various strains IIIB, A-G. • Strain IIIB is wild type HIV-LAI strain • Strain A contains mutation Y181C in HIV reverse transcriptase, • Strain B contains mutation K103N in HIV reverse transcriptase, • Strain C contains mutation L100I in HIV reverse transcriptase, • Strain D contains mutation Y188L in HIV reverse transcriptase, • Strain E contains mutations L100I and K103N in HIV reverse transcriptase, • Strain F contains mutations K103N and Y181C in HIV reverse transcriptase, and • Strain G contains mutations L100I, K103N, Y181C, V179I E138G L214F, V278V/I • and A327A/V in HIV reverse transcriptase.

[2] = tested on: Strain A (mutation Y181C in HIV reverse transcriptase); test: cellular antiviral assay, HIV mutant strain A; format: cell-based; conditions: for EC50: Human immunodeficiency virus 1, read-out: pEC50 A (converted)
Experimental: as §1, §2

[3] = tested on: Strain G (mutations L100I, K103N, Y181C, V179I E138G L214F, V278V/I and A327A/V in HIV reverse transcriptase); test: cellular antiviral assay, HIV mutant strain G; format: cell-based; conditions: for EC50: Human immunodeficiency virus 1, read-out: pEC50 G (converted)
Experimental: as §1, §2

[4] = tested on: Strain B (mutation K103N in HIV reverse transcriptase); test: cellular antiviral assay, HIV mutant strain B; format: cell-based; conditions: for EC50: Human immunodeficiency virus 1, read-out: pEC50 B (converted)
Experimental: as §1, §2

[5] = tested on: Strain D (mutation Y188L in HIV reverse transcriptase); test: cellular antiviral assay, HIV mutant strain D; format: cell-based; conditions: for EC50: Human immunodeficiency virus 1, read-out: pEC50 D (converted)
Experimental: as §1, §2

[6] = tested on: Strain E (mutations L100I and K103N in HIV reverse transcriptase); test: cellular antiviral assay, HIV mutant strain E; format: cell-based; conditions: for EC50: Human immunodeficiency virus 1, read-out: pEC50 E (converted)
Experimental: as §1, §2

[7] = tested on: Strain C (mutation L100I in HIV reverse transcriptase); test: cellular antiviral assay, HIV mutant strain C; format: cell-based; conditions: for EC50: Human immunodeficiency virus 1, read-out: pEC50 C (converted)
Experimental: as §1, §2

[8] = tested on: Strain IIIB (wild type HIV-LAI strain); test: cellular antiviral assay, wild type HIV; format: cell-based; conditions: for EC50: Human immunodeficiency virus 1, IIIB, read-out: pEC50 IIIB (converted)
Experimental: as §1, §2

Structure (SMILES)	EC50 [1] [nM]	EC50 [2] [nM]	EC50 [3] [nM]	melting point [°C]	EC50 [4] [nM]	EC50 [5] [nM]	EC50 [6] [nM]	EC50 [7] [nM]	EC50 [8] [nM]	pEC50 F ([1]; strain F, K103N and Y181C)	pEC50 A ([2]; strain A, Y181C)	pEC50 G ([3]; strain G, L100I, K103N, Y181C, V179I E138G L214F, V278V/I and A327A/V)	pEC50 B ([4]; strain B, K103N)	pEC50 D ([5]; strain D, Y188L)	pEC50 E ([6]; strain E, L100I and K103N)	pEC50 C ([7]; strain C, L100I)	pEC50 IIIB ([8]; strain IIIB, wild type HIV-LAI)
Cc1cc(/C=C/C#N)cc(C)c1-n1cnc2cnc(Nc3ccc(C#N)cc3)nc21 [Compound 20]	39.8	2.51	2000	> 250	0.631	15.8	7.94	0.631	0.2								
Cc1cc(/C=C/C#N)cc(C)c1-n1ccc2c(C)nc(Nc3ccc(C#N)cc3)nc21 [Compound 28]										7.8	7.9	5.7	8.5	7.7	8.5	8.6	8.5
Cc1cc(/C=C/C#N)cc(C)c1-n1c(=S)[nH]c2cnc(Nc3ccc(C#N)cc3)nc21 [Compound 31]	39.8	12.6	15800	> 250	2.51	79.4	398	2.51	1								
CCOC(=O)c1cc(C)c(N2CCc3c(C)nc(Nc4ccc(C#N)cc4)nc32)c(C)c1 [Compound 33]	3160	2510	12600	92	126	631	3980	794	50.1								
C/C(C#N)=C\c1cc(C)c(N2CCc3c(C)nc(Nc4ccc(C#N)cc4)nc32)c(C)c1 [Compound 34]	20	15.8	3980	105	2.51	20	15.8	3.98	2								
